Measurements published in US9260408B2, “Dihydroquinoline-2-one derivatives” (Hoffmann-La Roche Inc., priority 2011, dated 2016).

Legend:
human CYP11B2 = molecular target: T1, human CYP11B2 (Homo sapiens, UniProt P19099); test: G-402 cellular enzyme assay, human CYP11B2 (aldosterone release, HTRF); format: cell-based; conditions: G-402 cells expressing human CYP11B2; 1 μM Deoxycorticosterone
T1 construct: expressed in transfected cells
T1 sequence (P19099 25-503): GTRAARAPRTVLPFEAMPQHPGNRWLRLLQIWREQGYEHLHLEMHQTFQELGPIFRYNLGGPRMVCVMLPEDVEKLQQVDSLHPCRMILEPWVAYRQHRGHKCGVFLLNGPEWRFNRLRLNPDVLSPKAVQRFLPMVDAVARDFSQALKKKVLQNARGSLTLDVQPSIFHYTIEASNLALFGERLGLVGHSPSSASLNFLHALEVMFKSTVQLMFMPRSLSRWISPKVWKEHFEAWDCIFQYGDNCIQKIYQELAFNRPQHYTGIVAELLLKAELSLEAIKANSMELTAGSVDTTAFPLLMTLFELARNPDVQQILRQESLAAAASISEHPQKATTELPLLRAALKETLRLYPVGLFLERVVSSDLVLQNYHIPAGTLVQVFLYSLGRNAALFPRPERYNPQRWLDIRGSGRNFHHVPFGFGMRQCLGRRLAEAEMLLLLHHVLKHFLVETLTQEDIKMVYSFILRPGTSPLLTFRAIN
Method in brief: (§1)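 EC50 comes from least-squares fitting of a 4-parameter MMF curve to steroid product levels, measured by HTRF as aldosterone for CYP11B2 or cortisol for CYP11B1. Stably transfected G-402 host cells were given substrate (1 μM deoxycorticosterone or deoxycortisol, respectively) with inhibitor for 16 h in medium with 2.5% charcoal-treated FCS.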

human CYP11B1 = molecular target: T2, human CYP11B1 (Homo sapiens, UniProt P15538); test: G-402 cellular enzyme assay, human CYP11B1 (cortisol release, HTRF); format: cell-based; conditions: G-402 cells expressing human CYP11B1; 1 μM Deoxycortisol
T2 construct: expressed in transfected cells
T2 sequence (P15538 25-503): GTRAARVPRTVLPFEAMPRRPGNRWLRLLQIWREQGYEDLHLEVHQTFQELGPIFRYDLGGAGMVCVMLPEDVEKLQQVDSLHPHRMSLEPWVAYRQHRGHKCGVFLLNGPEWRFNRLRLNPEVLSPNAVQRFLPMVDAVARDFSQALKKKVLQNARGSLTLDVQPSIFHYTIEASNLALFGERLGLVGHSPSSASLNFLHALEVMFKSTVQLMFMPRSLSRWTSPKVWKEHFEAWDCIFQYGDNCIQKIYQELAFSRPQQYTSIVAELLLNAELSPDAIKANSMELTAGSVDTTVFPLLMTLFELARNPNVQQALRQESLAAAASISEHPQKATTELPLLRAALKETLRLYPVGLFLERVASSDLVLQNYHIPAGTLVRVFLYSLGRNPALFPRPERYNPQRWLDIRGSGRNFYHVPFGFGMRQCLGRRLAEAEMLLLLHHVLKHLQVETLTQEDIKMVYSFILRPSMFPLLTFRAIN
Method in brief: as §1

| Compound | EC50 (human CYP11B2) [nM] | EC50 (human CYP11B1) [nM] |
| --- | --- | --- |
| CCS(=O)(=O)N1CCC[C@H]1COc1cncc(-c2ccc3c(c2)CCC(=O)N3C)c1 [Example 167, 6-[5-((S)-1-Ethanesulfonyl-pyrrolidin-2-ylmethoxy)-pyridin-3-yl]-1-methyl-3,4-dihydro-1H-quinolin-2-one] | 18 | 898 |
| CCS(=O)(=O)N1CC[C@@H](Oc2cncc(-c3cc4c(cc3F)N(C)C(=O)CC4)c2)C1 [Example 168, 6-[5-((R)-1-Ethanesulfonyl-pyrrolidin-3-yloxy)-pyridin-3-yl]-7-fluoro-1-methyl-3,4-dihydro-1H-quinolin-2-one] | 14 | 273 |
| CCS(=O)(=O)N1CC[C@@H](Oc2cncc(-c3ccc4c(c3)CCC(=O)N4C)c2)C1 [Example 169, 6-[5-((R)-1-Ethanesulfonyl-pyrrolidin-3-yloxy)-pyridin-3-yl]-1-methyl-3,4-dihydro-1H-quinolin-2-one] | 35 | 850 |
| CCS(=O)(=O)N1CC(Oc2cncc(-c3ccc4c(c3)CCC(=O)N4C)c2)C1 [Example 170, 6-[5-(1-Ethanesulfonyl-azetidin-3-yloxy)-pyridin-3-yl]-1-methyl-3,4-dihydro-1H-quinolin-2-one] | 15 | 699 |
| CCS(=O)(=O)NC1(c2cncc(-c3cc4c(cc3F)N(C)C(=O)CC4)c2)CC1 [Example 171, Ethanesulfonic acid {1-[5-(7-fluoro-1-methyl-2-oxo-1,2,3,4-tetrahydro-quinolin-6-yl)-pyridin-3-yl]-cyclopropyl}-amide] | 9 | 420 |
| CCS(=O)(=O)N[C@H]1CC[C@H](Oc2cncc(-c3ccc4c(c3)CCC(=O)N4C)c2)CC1 [Example 172, Ethanesulfonic acid {(trans)-4-[5-(1-methyl-2-oxo-1,2,3,4-tetrahydro-quinolin-6-yl)-pyridin-3-yloxy]-cyclohexyl}-amide] | 1 | 69 |
| CN1C(=O)CCc2cc(-c3cncc(CNC(=O)c4cnn(C)c4)c3)c(F)cc21 [Example 175, 1-Methyl-1H-pyrazole-4-carboxylic acid [5-(7-fluoro-1-methyl-2-oxo-1,2,3,4-tetrahydro-quinolin-6-yl)-pyridin-3-ylmethyl]-amide] | 7 | 688 |
| CN1C(=O)CCc2cc(-c3cncc(CN4CCCS4(=O)=O)c3)ccc21 [Example 179, 6-[5-(1,1-Dioxo-1λ^6-isothiazolidin-2-ylmethyl)-pyridin-3-yl]-1-methyl-3,4-dihydro-1H-quinolin-2-one] | 12 | 169 |
| CCN(Cc1cncc(-c2ccc3c(c2)CCC(=O)N3C)c1)S(=O)(=O)CC [Example 181, Ethanesulfonic acid ethyl-[5-(1-methyl-2-oxo-1,2,3,4-tetrahydro-quinolin-6-yl)-pyridin-3-ylmethyl]-amide] | 25 | 2320 |
| CCS(=O)(=O)N(C)Cc1cncc(-c2ccc3c(c2)CCC(=O)N3C)c1 [Example 182, Ethanesulfonic acid methyl-[5-(1-methyl-2-oxo-1,2,3,4-tetrahydro-quinolin-6-yl)-pyridin-3-ylmethyl]-amide] | 6 | 302 |
| CCS(=O)(=O)NC(C)(C)c1cncc(-c2ccc3c(c2)CCC(=O)N3C)c1 [Example 183, Ethanesulfonic acid {1-methyl-1-[5-(1-methyl-2-oxo-1,2,3,4-tetrahydro-quinolin-6-yl)-pyridin-3-yl]-ethyl}-amide] | 4 | 268 |
| CCS(=O)(=O)N(Cc1cncc(-c2ccc3c(c2)CCC(=O)N3C)c1)C(C)C [Example 184, Ethanesulfonic acid isopropyl-[5-(1-methyl-2-oxo-1,2,3,4-tetrahydro-quinolin-6-yl)-pyridin-3-ylmethyl]-amide] | 227 | 9740 |
| CCOCCN(Cc1cncc(-c2ccc3c(c2)CCC(=O)N3C)c1)S(=O)(=O)CC [Example 185, Ethanesulfonic acid (2-ethoxy-ethyl)-[5-(1-methyl-2-oxo-1,2,3,4-tetrahydro-quinolin-6-yl)-pyridin-3-ylmethyl]-amide] | 633 | 9290 |
